In US8124382B2, “Methods, microarray, and kits for detection of drug resistance genes in gram-negative bacteria” (CapitalBio Corporation, priority 2006, dated 2012):

Legend:
Assay in all cases: in vitro antimicrobial susceptibility test (MIC, CLSI standard method)
[1] = tested on: E. cloacae TR3104; format: cell-based; conditions: strain TR3104; for The in vitro antimicrobial susceptibility test/MIC: CLA at fixed concentration 4 μg/ml in combinations
Method: (§1) Three gram-negative bacteria in Table 3 were tested. The in vitro antimicrobial susceptibility result was obtained according to the standard method of Clinical and Laboratory Standards Institute (CLSI).
(§2) The resistance genes in E. cloacae TR3104 were detected using the microarray in FIG. 1 according to the method in example 1. […] Thus the kit for detection of resistance genes in gram-negative bacteria in the present invention can be used to specifically detect the resistance genes in the prevalent gram-negative bacteria E. cloacae.

[2] = tested on: K. pneumoniae E298; format: cell-based, Klebsiella pneumoniae; conditions: for The in vitro antimicrobial susceptibility test/MIC: strain E298 (K. pneumoniae), CLA at fixed concentration 4 μg/ml in combinations
Method: as §1

[3] = tested on: K. pneumoniae BJ-7; format: cell-based, Klebsiella pneumoniae; conditions: for The in vitro antimicrobial susceptibility test/MIC: strain BJ-7 (K. pneumoniae), CLA at fixed concentration 4 μg/ml in combinations
Method: as §1

[4] = tested on: K. pneumoniae BJ-35; format: cell-based, Klebsiella pneumoniae; conditions: for The in vitro antimicrobial susceptibility test/MIC: strain BJ-35 (K. pneumoniae), CLA at fixed concentration 4 μg/ml in combinations
Method: as §1

[5] = tested on: E. coli Z302; format: cell-based; conditions: for The in vitro antimicrobial susceptibility test/MIC: strain Z302 (E. coli), CLA at fixed concentration 4 μg/ml in combinations
Method: as §1
as §2, with “coli Z302” for “cloacae TR3104”, “Example” for “example”, “coli.” for “cloacae.”

[6] = strain E298, shown by microarray-detected genes, consistent with MIC results
[7] = strain BJ-7, shown by microarray-detected genes, consistent with MIC results
[8] = strain BJ-35, shown by microarray-detected genes, consistent with MIC results
[9] = strain Z302, shown by microarray-detected genes, consistent with MIC results

SMILES	The in vitro antimicrobial susceptibility test/MIC [1]	The in vitro antimicrobial susceptibility test/MIC [2]	The in vitro antimicrobial susceptibility test/MIC [5]	The in vitro antimicrobial susceptibility test/MIC [3] [µg/mL]	The in vitro antimicrobial susceptibility test/MIC [4] [µg/mL]	resistance or susceptibility of the isolate ([1]; shown by microarray-detected genes, consistent with MIC results)	resistance or susceptibility of the isolate [2, 6]	resistance or susceptibility of the isolate [3, 7]	resistance or susceptibility of the isolate [4, 8]	resistance or susceptibility of the isolate [5, 9]	inhibition of the isolate's resistance by clavulanate [2, 6]	inhibition of the isolate's resistance by clavulanate [3, 7]	inhibition of the isolate's resistance by clavulanate [4, 8]	inhibition of the isolate's resistance by clavulanate [5, 9]
CO[C@@]1(NC(=O)Cc2cccs2)C(=O)N2C(C(=O)O)=C(COC(N)=O)CS[C@@H]21 [FOX, cefoxitin]	≧256 μg/ml	≧128 μg/ml	≧128 μg/ml	8	2	resistant	resistant	susceptible	susceptible	resistant	–	–	–	–
O=C(O)[C@H]1/C(=C/CO)O[C@@H]2CC(=O)N21 [clavulanate]	–	–	–	–	–	–	–	–	–	–	not inhibited	inhibited	inhibited	not inhibited

More lines, main results first:

The in vitro antimicrobial susceptibility test/MIC [1]	The in vitro antimicrobial susceptibility test/MIC [2]	The in vitro antimicrobial susceptibility test/MIC [5]	SMILES	The in vitro antimicrobial susceptibility test/MIC [3] [µg/mL]	The in vitro antimicrobial susceptibility test/MIC [4] [µg/mL]	resistance or susceptibility of the isolate ([1]; shown by microarray-detected genes, consistent with MIC results)	resistance or susceptibility of the isolate [2, 6]	resistance or susceptibility of the isolate [3, 7]	resistance or susceptibility of the isolate [4, 8]	resistance or susceptibility of the isolate [5, 9]	inhibition of the isolate's resistance by clavulanate [2, 6]	inhibition of the isolate's resistance by clavulanate [3, 7]	inhibition of the isolate's resistance by clavulanate [4, 8]	inhibition of the isolate's resistance by clavulanate [5, 9]
4 µg/mL	≧128 μg/ml	≧128 μg/ml	CC(C)(O/N=C(\C(=O)N[C@@H]1C(=O)N2C(C(=O)[O-])=C(C[n+]3ccccc3)CS[C@H]12)c1csc(N)n1)C(=O)O [CAZ, ceftazidime]	32	4	–	–	–	–	–	–	–	–	–
64 µg/mL	≧128 μg/ml	≧128 μg/ml	CO/N=C(\C(=O)N[C@@H]1C(=O)N2C(C(=O)O)=C(COC(C)=O)CS[C@H]12)c1csc(N)n1 [CTX, cefotaxime]	64	8	–	–	–	–	–	–	–	–	–
4 µg/mL	<0.5 µg/mL	4 µg/mL	C[C@@H](O)[C@H]1C(=O)N2C(C(=O)O)=C(SCCN=CN)C[C@H]12 [IMP, imipenem]	<0.5	<0.5	–	–	–	–	–	–	–	–	–
